Entries after “also recorded” stand apart in the source; their conditions may differ.
Legend:
24-month-old rats = conditions: cited from earlier work
aging accelerated mice = conditions: intraperitoneally injected daily; cited from earlier work
[1] = in vivo; cited from earlier work
[2] = system: rats with ischemia caused by MCAo; experiment: Protection of rats having cerebral ischemia caused by MCAO (TTC, extent of cerebral infarction); assay type: in vivo; conditions: 65 mg/kg intravenously 1 hr after ischemia, 2 hrs ischemia, 24 hrs reperfusion, FIG. 4
Description: Anesthesia was performed on rats (female SD rats, in body weight of 260-300 g) with intraperitoneal injection of 10% hydrated chloral hydrate in a dose of 400 mg/kg or with inhalation of 3.5% halothane. At the entrance of MCAO (Middle Cerebral Artery Occlusion Ischemia) was blocked with a nylon wire to cause cerebral ischemia. After ischemia occurred for 1 hr, the rats were respectively intravenously injected with EDA (63 mg/kg), TBN (80 mg/kg), TN-2 (65 mg/kg), and saline (control group). There were 6 rats in each group. After ischemia occurred for 2 hrs, the nylon wires were removed, and reperfusion was performed for 24 hrs. Brain tissues were taken and the cerebellums were removed. The material was rinsed in PBS solution, and put in a freezer set at −20° C. for a moment, and the brain tissues were cut into slices with a thickness of about 2 mm, and immediately placed in a solution of 0.5% triphenyltetrazolium chloride (TTC). Incubation was performed at 37° C. for 30 minutes. The extent of cerebral infarction was evaluated. […] In FIG. 4, the data were examined by one-tailed t-test; the mark “*” refers to the data in comparison with the control; drug dosage: TBN (80 mg/kg), and Edaravone (63 mg/kg); and each of the drugs were used in equal molarity.

Dopaminergic neurons = experiment: Cytoprotection on injuries of dopaminergic neurons induced by MPP+; assay type: cell-based; conditions: 500 μM, 50 μM and 5 μM, MPP+ 10 μM, FIG. 5
Description: Dopaminergic neurons were cultured for 5 days, and L-Deprenyl, TMP and TN-2 were added in a concentration gradient of 500 μM, 50 μM and 5 μM respectively. Two hours later, MPP^+(with a final concentration of 10 μM) was added into each of the wells except those of the control.

PC12 cells = experiment: Cytoprotection of PC12 cells against t-BHP-induced damage (MTT); assay type: cell-based, rats; conditions: t-BHP 200 μM, FIG. 3
Description: PC12 cells were inoculated in a 96-well plate of strong adsorption with 90 μL per well, cultured for 36 hrs in an incubator set at 37° C. and 5% CO2. After 36 hrs, each of the drugs was added in four concentration gradients. Cultured for half an hour in an incubator set at 37° C. and 5% CO2, replaced with serum-free medium, t-BHP ([…], final concentration of 200 μM) was added in each of the wells except the well of the control. Then the material was placed and cultured in an incubator for 24 hrs. The cells were cultured for 24 hrs, and MTT (15 μL, 5 mg/mL) was added in each of the wells. The material was cultured in an incubator for 4 hrs, and then DMSO ([…]) was added in each of the wells to be further incubated for at least half an hour to ensure the crystals were completely dissolved. The absorbance (A value) was measured by using a micro-plate reader at 570 nm.

[3] = 32 mg/kg intraperitoneally daily for 9.5 months

CC(C)(C)/[N+]([O-])=C/c1ccccc1 [PBN, Phenyl-tert-Butyl Nitrones]
cognitive ability for older rats (24-month-old rats; [3]): enhanced
lipid peroxidation reactions in cerebral cortex and globus pallidus (24-month-old rats; [3]): diminished
rats still alive (24-month-old rats; when the experiment was run for 32 months): 7 of the 11
increase in the lifespan of the mice (aging accelerated mice): 33%

Cc1nc(C)c(C)nc1C [TMP, Tetramethylpyrazine]
bioavailability [1]: low

Cc1nc(/C=[N+](/[O-])C(C)(C)C)c(C)nc1/C=[N+](/[O-])C(C)(C)C [TN-2]
treatment effects on stroke of the rats (extent of cerebral infarction) [2]: significant treatment effects
cytoprotection to the MPP+-induced cell damage (Dopaminergic neurons): significant
cytoprotection towards the t-BHP-induced cell damage (PC12 cells; 24 hrs, MTT absorbance at 570 nm): significant effect of cytoprotection; also recorded: significant protective effects
intensity of the cytoprotective effect compared with TMP (PC12 cells): significantly higher than that of TMP
